This note sets out measurements from ChEMBL document CHEMBL1150292, “4-benzyl-1H-imidazoles with oxazoline termini as histamine H3 receptor agonists” (J Med Chem, 2008).

Assay [1] concerns the target T1, Histamine H3 receptor (Homo sapiens, UniProt Q9Y5N1). As to the kind of experiment: Agonist activity at human histamine H3 receptor assessed as beta galactosidase activity. The format is functional.
Assay [2] concerns the target T1, Histamine H3 receptor. The assay is described as follows: Displacement of [3H]N-alpha-methylhistamine from human histamine H3 receptor expressed in CHO cells. In kind it is cell-based. On the technique in general: In a radioligand displacement assay an active substance lowers the binding of a labelled ligand.
A further assay concerns the target Cytochrome P450 2D6 (Homo sapiens, UniProt P10635). The assay is described as follows: Inhibition of CYP2D6 in human liver microsomes assessed as dextromethorphan O-demethylase activity. In kind it is ADME, Microsome.
Assay [3] in a line: Inhibition of […] in human liver microsomes assessed as midazolam 1'-hydroxylase activity. In kind it is ADME, Microsome. (Microsomes from liver hold many membrane-bound enzymes, among them those of drug oxidation.)
In assay [4] the target is T1, Histamine H3 receptor. The assay is described as follows: Agonist activity at human histamine H3 receptor assessed as effect on [35S]GTPgammaS binding. The format is functional. (In general: GTPγS resists hydrolysis and so accumulates on activated G proteins.)
The target of assay [5] is Histamine H1 receptor (Homo sapiens) (UniProt P35367). As to the kind of experiment: Inhibition of histamine H1 receptor at 10 uM.
In assay [6] the target is Histamine H2 receptor (Homo sapiens) (UniProt P25021). The assay is described as follows: Inhibition of histamine H2 receptor at 10 uM.
Assay [7] deals with T2, Histamine H4 receptor (Homo sapiens, UniProt Q9H3N8). The assay is described as follows: Displacement of [3H]histamine from human histamine H4 receptor expressed in CHO cells. The format is cell-based.
Assay [8] addresses T3, Histamine H3 receptor (Cavia porcellus, UniProt Q9JI35). The assay is described as follows: Antagonist activity at guinea pig histamine H3 receptor assessed as inhibition of electrically induced twitch contraction. In kind it is functional. As to conditions: read-out: pA2 (converted).
Assay [9] addresses T2, Histamine H4 receptor. As to the kind of experiment: Displacement of [3H]histamine from human histamine H4 receptor expressed in CHO cells at 10 uM. In kind it is cell-based.
Assay [10] deals with T3, Histamine H3 receptor. The assay is described as follows: Activity at histamine H3 receptor in guinea pig ileum. The format is tissue-based.
Assay [11] deals with Histamine H3 receptor (Cavia porcellus) (UniProt Q9JI35). As to conditions: Ileum.
For assay [12], the target named is Histamine H3 receptor (Rattus norvegicus, UniProt Q9QYN8). The assay is described as follows: Agonist activity at histamine H3 receptor in rat cortex.
For assay [13], the target named is Histamine H3 receptor (Rattus norvegicus) (UniProt Q9QYN8). To be noted: Cortex.
Sequence of Histamine H3 receptor (Rattus norvegicus) (Q9QYN8 whole entry): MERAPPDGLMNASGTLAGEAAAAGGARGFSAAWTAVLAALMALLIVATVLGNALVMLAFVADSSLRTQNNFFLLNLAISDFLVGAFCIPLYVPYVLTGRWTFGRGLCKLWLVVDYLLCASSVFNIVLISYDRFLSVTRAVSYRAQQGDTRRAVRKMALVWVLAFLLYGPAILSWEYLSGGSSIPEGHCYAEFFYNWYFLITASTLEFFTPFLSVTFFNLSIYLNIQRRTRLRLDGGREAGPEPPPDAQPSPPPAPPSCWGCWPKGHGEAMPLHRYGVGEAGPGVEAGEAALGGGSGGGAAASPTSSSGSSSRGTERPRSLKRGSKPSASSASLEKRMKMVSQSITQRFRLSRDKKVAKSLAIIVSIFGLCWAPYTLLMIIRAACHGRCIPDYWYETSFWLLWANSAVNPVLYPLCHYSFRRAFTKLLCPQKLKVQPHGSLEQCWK

T2 sequence (Q9H3N8 whole entry): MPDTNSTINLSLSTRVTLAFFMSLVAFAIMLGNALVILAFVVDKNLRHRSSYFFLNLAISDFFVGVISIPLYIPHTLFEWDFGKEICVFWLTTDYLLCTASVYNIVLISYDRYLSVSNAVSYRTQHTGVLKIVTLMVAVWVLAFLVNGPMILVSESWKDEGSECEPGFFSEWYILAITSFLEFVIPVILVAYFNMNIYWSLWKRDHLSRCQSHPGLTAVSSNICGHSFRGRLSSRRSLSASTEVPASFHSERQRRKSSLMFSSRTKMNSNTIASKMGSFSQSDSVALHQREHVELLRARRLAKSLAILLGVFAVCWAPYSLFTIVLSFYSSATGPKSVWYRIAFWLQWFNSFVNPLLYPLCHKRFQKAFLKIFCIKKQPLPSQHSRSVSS
Sequence of Histamine H2 receptor (Homo sapiens) (P25021 whole entry): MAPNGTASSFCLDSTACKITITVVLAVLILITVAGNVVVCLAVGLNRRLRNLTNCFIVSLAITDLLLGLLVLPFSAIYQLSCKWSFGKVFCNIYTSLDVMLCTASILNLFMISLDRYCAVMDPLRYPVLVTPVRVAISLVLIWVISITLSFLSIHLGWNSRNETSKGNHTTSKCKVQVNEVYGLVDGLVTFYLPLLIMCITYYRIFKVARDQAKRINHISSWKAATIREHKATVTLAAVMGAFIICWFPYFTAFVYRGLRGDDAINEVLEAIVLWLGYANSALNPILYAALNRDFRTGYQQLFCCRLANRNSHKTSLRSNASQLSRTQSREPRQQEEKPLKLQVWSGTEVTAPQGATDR
T3 sequence (Q9JI35 whole entry): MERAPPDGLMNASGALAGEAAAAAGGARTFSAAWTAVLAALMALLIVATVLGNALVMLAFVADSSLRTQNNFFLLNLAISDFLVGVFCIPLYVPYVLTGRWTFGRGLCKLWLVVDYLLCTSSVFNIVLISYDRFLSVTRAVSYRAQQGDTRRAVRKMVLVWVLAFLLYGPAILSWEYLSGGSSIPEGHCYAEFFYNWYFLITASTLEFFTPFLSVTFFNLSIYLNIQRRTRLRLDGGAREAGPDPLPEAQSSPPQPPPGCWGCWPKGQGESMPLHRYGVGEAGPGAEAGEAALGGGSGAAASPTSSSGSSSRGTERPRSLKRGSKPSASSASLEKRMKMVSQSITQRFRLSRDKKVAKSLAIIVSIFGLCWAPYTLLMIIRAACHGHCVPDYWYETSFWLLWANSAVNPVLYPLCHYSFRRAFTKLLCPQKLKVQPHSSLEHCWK
Sequence of Cytochrome P450 2D6 (P10635 whole entry): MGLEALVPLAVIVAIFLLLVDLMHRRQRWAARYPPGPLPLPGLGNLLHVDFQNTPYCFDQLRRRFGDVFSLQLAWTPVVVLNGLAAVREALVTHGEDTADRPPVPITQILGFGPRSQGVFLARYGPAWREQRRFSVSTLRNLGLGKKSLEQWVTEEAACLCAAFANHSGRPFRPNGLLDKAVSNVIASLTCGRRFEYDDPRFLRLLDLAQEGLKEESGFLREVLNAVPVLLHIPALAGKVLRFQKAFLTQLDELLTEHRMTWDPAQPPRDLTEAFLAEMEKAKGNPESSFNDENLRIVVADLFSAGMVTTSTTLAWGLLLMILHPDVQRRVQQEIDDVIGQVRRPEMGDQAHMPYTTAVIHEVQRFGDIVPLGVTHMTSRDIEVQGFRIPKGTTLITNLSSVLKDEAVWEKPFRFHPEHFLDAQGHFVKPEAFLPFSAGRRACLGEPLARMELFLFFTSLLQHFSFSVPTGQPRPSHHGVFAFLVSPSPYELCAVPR
T1 sequence (Q9Y5N1 whole entry): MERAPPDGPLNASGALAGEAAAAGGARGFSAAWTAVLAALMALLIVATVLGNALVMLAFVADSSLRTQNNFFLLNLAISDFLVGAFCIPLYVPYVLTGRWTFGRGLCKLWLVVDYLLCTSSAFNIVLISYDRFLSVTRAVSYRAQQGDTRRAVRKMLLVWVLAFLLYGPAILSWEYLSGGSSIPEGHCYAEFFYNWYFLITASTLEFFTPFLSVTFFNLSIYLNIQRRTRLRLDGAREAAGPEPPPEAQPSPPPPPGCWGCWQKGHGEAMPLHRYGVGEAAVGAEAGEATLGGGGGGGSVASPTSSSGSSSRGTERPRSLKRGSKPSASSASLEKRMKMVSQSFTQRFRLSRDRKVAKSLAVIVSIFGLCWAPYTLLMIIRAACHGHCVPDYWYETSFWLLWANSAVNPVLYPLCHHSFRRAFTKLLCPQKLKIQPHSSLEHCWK
Sequence of Histamine H1 receptor (Homo sapiens) (P35367 whole entry): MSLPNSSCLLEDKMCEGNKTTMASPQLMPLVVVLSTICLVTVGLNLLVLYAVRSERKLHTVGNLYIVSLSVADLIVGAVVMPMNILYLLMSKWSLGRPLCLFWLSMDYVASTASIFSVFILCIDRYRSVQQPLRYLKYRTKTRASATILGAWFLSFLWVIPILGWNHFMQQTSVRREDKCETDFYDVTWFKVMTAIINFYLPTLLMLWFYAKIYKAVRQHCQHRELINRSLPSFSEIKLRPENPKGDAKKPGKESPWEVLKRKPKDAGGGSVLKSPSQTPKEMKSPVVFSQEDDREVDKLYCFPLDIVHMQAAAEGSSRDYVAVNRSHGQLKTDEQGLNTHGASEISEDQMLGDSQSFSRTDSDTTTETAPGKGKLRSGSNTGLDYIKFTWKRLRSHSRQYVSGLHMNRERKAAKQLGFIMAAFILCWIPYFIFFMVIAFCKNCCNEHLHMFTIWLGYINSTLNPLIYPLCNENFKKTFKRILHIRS
Sequence of Histamine H3 receptor (Cavia porcellus) (Q9JI35 whole entry): as the sequence (Q9JI35 whole entry) above
Sequence of Histamine H3 receptor (Rattus norvegicus, UniProt Q9QYN8) (Q9QYN8 whole entry): as the sequence (Q9QYN8 whole entry) above

Broadly, the EC50 is the concentration at which the effect is half-maximal. For the compound `c1cc(Cc2cnc[nH]2)ccn1` [IMMETHRIDINE], on Histamine H3 receptor [1], the EC50 was 0.2 nM.
One may read the Ki as a measure of affinity in units of concentration, obtained from inhibition or displacement. Read a low Ki as a stronger hold on the target. The compound `c1cc(Cc2c[nH]cn2)cc(C2=NCC3(CCCCC3)O2)c1` showed a Ki at Histamine H3 receptor [2] of 56.2 nM.
The term IC50 denotes the concentration that gives 50% inhibition. As to `C(#Cc1cccc(Cc2c[nH]cn2)c1)c1ccccc1`, affinity at Histamine H3 receptor [2] was put at a Ki of 1.82 nM. The IC50 on Cytochrome P450 2D6 was 488 nM; in assay [3], 2760 nM.
In the case of `c1ccc(-c2cccc(Cc3c[nH]cn3)c2)nc1`, the Ki at Histamine H3 receptor [2] was 40.7 nM.
Take `C(#Cc1cccc2ccccc12)c1cccc(Cc2c[nH]cn2)c1`: the affinity at Histamine H3 receptor [2], expressed as Ki, was 1740 nM.
On to `CCCCc1c[nH]cn1`, for which, at Histamine H3 receptor [2], the affinity corresponds to a Ki of 25.1 nM. Further, at Histamine H3 receptor [1], the EC50 was 31.6 nM.
`N#Cc1ccc(Cc2c[nH]cn2)cc1` showed a Ki at Histamine H3 receptor [2] of 813 nM.
The same measure, in the same setting: the value for `c1cc(Cc2cnc[nH]2)cc(-c2ccncc2)c1` was 427 nM; that for `CC(C)(C)C#Cc1ccc(Cc2c[nH]cn2)cc1` was 537 nM.
One may read the inhibition as how much of the control response was suppressed. A high value points to a strong effect. On to `CC(C)(C)C#Cc1cccc(Cc2c[nH]cn2)c1`, for which the Ki on Histamine H3 receptor [2] is 4.47 nM; at Histamine H4 receptor [7], 5.62 nM. In addition, the EC50 on Histamine H3 receptor [4] is 7.94 nM. Further, the inhibition in assay [5] was less than 20%; in [6], less than 40%. Besides, the results for the IC50 (at Cytochrome P450 2D6; in assay [3]) were 1780 nM and 1860 nM, respectively. Also, the Kb at Histamine H3 receptor [8] was 79.4 nM.
In the case of `CC(C)(C)CC(=O)c1cccc(Cc2c[nH]cn2)c1`, the results for the inhibition in assay [5] and in [6] were less than 20% and less than 40%, respectively. Further, the IC50 in [3] was determined as 1100 nM.
For `c1cc(Cc2cnc[nH]2)cc(C2=NC(CC3CCCCC3)CO2)c1` (stereo unspecified), on Histamine H3 receptor [2], the affinity, expressed as Ki, was 708 nM.
`c1ccc(Cc2c[nH]cn2)cc1` showed a Ki on Histamine H3 receptor [2] of 162 nM. This Ki lies about 4.4-fold lower than the previous one.
The same measure, in the same setting: the value for `c1cc(Cc2cnc[nH]2)cc(C2=NC3(CCCC3)CO2)c1` was 39.8 nM.
As to `c1ccc(C[C@@H]2COC(c3cccc(Cc4cnc[nH]4)c3)=N2)cc1`, the Ki at Histamine H3 receptor [2] is 89.1 nM. Besides, the EC50 at Histamine H3 receptor [4] is 79.4 nM. The Kb on Histamine H3 receptor [8] was 2240 nM.
Turning to `Nc1ccc(Cc2c[nH]cn2)cc1`, on Histamine H3 receptor [2], the Ki is 257 nM.
For the compound `CC1(C)COC(c2ccc(Cc3c[nH]cn3)cc2)=N1`, affinity at Histamine H3 receptor [2] was put at a Ki of 2510 nM. Also, the IC50 on Cytochrome P450 2D6 is 543 nM; in [3], 2520 nM. This compound showed an inhibition on Histamine H4 receptor [9] of 17%.
As to `C[C@H]1CNC[C@@H]1c1c[nH]cn1`, on Histamine H3 receptor [10], the Ki is 2.51 nM. This compound also displayed a pD2 in [11] of 7.5.
Regarding `CC1CC(C)(C)N=C(c2cccc(Cc3c[nH]cn3)c2)O1` (stereo unspecified), the Ki at Histamine H3 receptor [2] was 1.26 nM; on Histamine H4 receptor [7], 8.32 nM. The EC50 at Histamine H3 receptor [4] was 2 nM. Moreover, the inhibition is less than 20% in [5] and less than 40% in [6]. The IC50 on Cytochrome P450 2D6 came out at 292 nM; in [3] it was 873 nM. Further, the Kb on Histamine H3 receptor [8] was 3.98 nM.
As for `c1ccc(COCCCc2c[nH]cn2)cc1` [PROXYFAN], the Ki at Histamine H3 receptor [12] is 10 nM. That is a double-digit nanomolar value.
Take `c1ccc(-c2cccc(Cc3cnc[nH]3)c2)cc1`: the Ki on Histamine H3 receptor [2] is 33.1 nM. Moreover, the EC50 at Histamine H3 receptor [4] was 200 nM.
On to `Brc1ccc(Cc2c[nH]cn2)cc1`, for which the affinity at Histamine H3 receptor [2], expressed as Ki, was 417 nM. In addition, the EC50 on Histamine H3 receptor [4] is 631 nM.
With `CC1(C)COC(c2cccc(Cc3c[nH]cn3)c2)=N1`, on Histamine H3 receptor [2], the Ki was 3.98 nM. Also, at Histamine H3 receptor [4], the EC50 was 15.8 nM.
On Histamine H3 receptor [2], `N#Cc1cccc(Cc2c[nH]cn2)c1` showed a Ki of 155 nM.
In turn, `CCCC#Cc1cccc(Cc2c[nH]cn2)c1` gave a Ki at Histamine H3 receptor [2] of 3.16 nM. Also, the IC50 at Cytochrome P450 2D6 was found to be 644 nM; in assay [3], 1640 nM.
Regarding `CC(C)(C)CCC#C[C@@H]1C[C@H]1c1c[nH]cn1` (single isomer, unassigned) [CIPRALISANT], the affinity on Histamine H3 receptor [2], expressed as Ki, was 3.98 nM.
Regarding `C[C@@H](N)Cc1c[nH]cn1`, the pD2 in [13] came out at 8.4.
For the compound `CC1(C)CN=C(c2cccc(Cc3cnc[nH]3)c2)OC1`, at Histamine H3 receptor [2], the Ki was 2510 nM. This lies in the single-digit micromolar range.
Take `CC(C)(C)CC(=O)c1cccc(Cc2cnc[nH]2)c1`: the Ki was 32.4 nM on Histamine H3 receptor [2] and 5.62 nM on Histamine H4 receptor [7]. The EC50 at Histamine H3 receptor [4] is 79.4 nM. Further, on Cytochrome P450 2D6, the IC50 is 1930 nM. For the same compound, on Histamine H3 receptor [8], the Kb is 955 nM.
Consider `CNCCc1c[nH]cn1`, for which the Ki on Histamine H3 receptor [10] is 2.51 nM.
In assay [11], `CNCCc1cnc[nH]1` had a pD2 of 7.8.
On to `c1nc(CC2CCNCC2)c[nH]1` [IMMEPIP], for which affinity at Histamine H3 receptor [2] was put at a Ki of 0.407 nM. In other words, the sub-nanomolar range.
